Laboratory results published in patent US6177437A, “Inhibitors of Herpes Simplex virus uracil-DNA glycosylase” (University of Massachusetts Medical Center, priority 1999, dated 2001).
Like-named read-outs stand apart in the source and are kept apart here.

Legend:
[1] = target: T1, HSV1 uracil-DNA glycosylase (HSV1 UDG) (Human herpesvirus 1, UniProt P10186); assay: Inhibition of HSV1 uracil-DNA glycosylase, [3H]uracil release from [3H]dUMP-containing DNA; format: biochemical; settings: for Potency against HSV1 UDG relative to parent compound: hexAU derivatives vs 4, octAU derivatives vs 5; for Activity against viral UDG: at 200 μM
T1 construct: made in house
Experimental: (§1) Compounds 2-8 were screened against purified HSV1 and human (HeLa) uracil-DNA glycosylases which were isolated by conventional enzyme purification protocols^1. Assays for inhibition by the compounds were conducted as described in the literature^1 by measuring [^3 H]uracil release from [^3 H]dUMP-containing DNA, in the presence of varying concentrations of test compounds. Control assays contained the same concentration of diluent, dimethylsulfoxide. IC50 s (the concentration of compound that causes half-maximal inhibition of [^3 H]uracil release from [^3 H]dUMP-containing DNA) for each of the compounds were calculated.
(§2) a. Isolation and assay of uracil-DNA glycosylases. The viral and human (HeLa) uracil-DNA glycosylases are isolated with conventional enzyme purification protocols (Focher et al., 1993). Both long and short forms of the HSV1 enzyme have been cloned and expressed in E. Coli (Argnani et al., 1995), and have essentially identical enzymatic properties and inhibitor sensitivities. Assays for new inhibitors of viral and human UDG are done as described (Focher et al., 1993) by measuring [^3 H]uracil release from [^3 H]dUMP-DNA. Mechanism studies involve classical variable substrate assays to determine if inhibition is competitive with substrate or product.

[2] = Solubility observations (assay medium, water); format: physicochemical
[3] = target: T1, HSV1 uracil-DNA glycosylase (HSV1 UDG); settings: cited from earlier work
[4] = target: T2, human (HeLa) uracil-DNA glycosylase (Homo sapiens, UniProt P13051); settings: cited from earlier work; for IC50: compounds 4 and 5, from Focher et al., 1993, read-out: IC50 Human-UDG
T2 construct: The viral and human (HeLa) uracil-DNA glycosylases are isolated with conventional enzyme purification protocols; endogenous in cells; host or cells: HeLa

[5] = target: T2, human (HeLa) uracil-DNA glycosylase; assay: Inhibition of human (HeLa) uracil-DNA glycosylase, [3H]uracil release from [3H]dUMP-containing DNA; format: biochemical; settings: Table 3; read-out: IC50 Human-UDG
Experimental: as §1, §2

[6] = Table 1, from literature (footnote a), read-out: IC50
[7] = compounds 4 and 5, from Focher et al., 1993, read-out: IC50 HSV1-UDG
[8] = Table 2, read-out: IC50, experimental value
[9] = Table 3, read-out: IC50 HSV1-UDG

T2 sequence (P13051 whole entry): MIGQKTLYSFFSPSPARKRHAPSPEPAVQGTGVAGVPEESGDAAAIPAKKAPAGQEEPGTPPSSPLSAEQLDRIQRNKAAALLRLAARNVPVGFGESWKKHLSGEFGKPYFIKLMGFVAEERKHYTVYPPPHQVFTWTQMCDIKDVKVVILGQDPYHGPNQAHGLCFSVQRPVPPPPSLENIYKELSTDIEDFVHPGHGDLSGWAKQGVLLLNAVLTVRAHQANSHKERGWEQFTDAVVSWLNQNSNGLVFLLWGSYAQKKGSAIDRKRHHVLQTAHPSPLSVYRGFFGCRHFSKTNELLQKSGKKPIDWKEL
T1 sequence (P10186 whole entry): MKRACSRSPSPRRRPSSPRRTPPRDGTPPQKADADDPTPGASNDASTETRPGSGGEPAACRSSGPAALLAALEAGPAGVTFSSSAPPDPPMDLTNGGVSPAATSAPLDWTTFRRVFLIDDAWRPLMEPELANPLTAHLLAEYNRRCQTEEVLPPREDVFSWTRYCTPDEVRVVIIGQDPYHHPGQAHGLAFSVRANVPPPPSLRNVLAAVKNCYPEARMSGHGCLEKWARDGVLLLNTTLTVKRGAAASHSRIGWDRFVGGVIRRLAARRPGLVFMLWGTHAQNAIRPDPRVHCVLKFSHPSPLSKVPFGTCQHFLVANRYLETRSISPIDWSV

**Q.** Which “Mode of inhibition of HSV1 UDG” value [1] does the source give for `CCCCCCCCc1ccc(Nc2cc(=O)[nH]c(=O)[nH]2)cc1` [Compound 5, 6-(4-n-octylanilino)uracil] here?
**A.** competitive with DNA

**Q.** What about the “Water solubility” value [2] of the same compound?
**A.** poor water solubility

**Q.** What about the IC50 [3, 6] of the same compound?
**A.** 8 µM

**Q.** And the IC50 [3, 7]?
**A.** 8 µM

**Q.** And the IC50 [4]?
**A.** > 300 µM

**Q.** For `CCCCCCCCCCc1ccc(Nc2cc(O)nc(O)n2)cc1` [Compound 6, 6-(4-Decylanilino)uracil], which IC50 [1, 8] is on record?
**A.** 35 µM

**Q.** And the IC50 [5]?
**A.** > 200 µM

**Q.** With `CCCCCCc1ccc(Nc2cc(=O)[nH]c(=O)n2CCC)cc1` [Compound 18, 1-Propyl-6-(4-hexylanilino)uracil] as the compound, how does the IC50 [5] read?
**A.** > 200 µM

**Q.** For `CCCCCCc1ccc(Nc2cc(=O)[nH]c(=O)n2CCCOC)cc1` [Compound 20, 1-(3-Methoxypropyl)-6-(4-hexylanilino)uracil], which IC50 [1, 9] is on record?
**A.** > 100 µM

**Q.** With `Nc1cc(=O)[nH]c(=O)[nH]1` [6-Aminouracil, reference compound] as the compound, how does the IC50 ([1]; text b184, read-out: IC50 HSV1 UDG) read?
**A.** 1000 µM

**Q.** And the “Inhibition of human UDG” value ([4]; reported (Caradonna et al, 1981))?
**A.** inhibit weakly

**Q.** With `CCCCCCCCc1ccc(Nc2cc(=O)[nH]c(=O)n2CCO)cc1` [Compound 25, 1-(2-Hydroxyethyl)-6-(4-octylanilino)uracil] as the compound, how does the IC50 [1, 9] read?
**A.** 10 µM

**Q.** And the “Potency against HSV1 UDG relative to parent compound” value [1]?
**A.** as a potent an inhibitor as 5

**Q.** Which “Activity against viral UDG” value [1] does the source give for `CCCCCCc1ccc(Nc2[nH]c(=O)[nH]c(=O)c2C)cc1` [(4-n-hexylanilino)thymine, 6-(4-Hexylanilino)thymine] here?
**A.** inactive

**Q.** With `CCCCCCc1ccc(Nc2cc(=O)[nH]c(=O)n2CCOC)cc1` [Compound 19, 1-(2-Methoxyethyl)-6-(4-hexylanilino)uracil] as the compound, how does the IC50 [1, 9] read?
**A.** > 100 µM

**Q.** Which IC50 [5] does the source give for `CCCCCCc1ccc(Nc2cc(=O)[nH]c(=O)n2C)cc1` [Compound 16, 1-Methyl-6-(4-hexylanilino)uracil] here?
**A.** > 200 µM

**Q.** Which “Potency against HSV1 UDG, fold weaker than 4” value [1] does the source give for `CCCCCCc1ccc(Nc2cc(=O)[nH]c(=O)n2CCCO)cc1` [Compound 22, 1-(3-Hydroxypropyl)-6-(4-hexylanilino)uracil] here?
**A.** 3 fold

**Q.** What about the IC50 ([1]; read-out: IC50 HSV1-UDG) of the same compound?
**A.** 90 µM

**Q.** What does the source list for `CCCCCCc1ccc(Nc2cc(=O)[nH]c(=O)n2CCO)cc1` [Compound 21, 1-(2-Hydroxyethyl)-6-(4-hexylanilino)uracil]?
**A.** IC50 [1, 9]: 20 µM; Potency against HSV1 UDG relative to parent compound [1]: equipotent with 4

**Q.** For `CCCCCCOc1ccc(Nc2cc(O)nc(O)n2)cc1` [Compound 7, 6-(4-Hexyloxyanilino)uracil], which IC50 [1, 8] is on record?
**A.** 30 µM

**Q.** With `CCCCCCCCc1ccc(Oc2cc(=O)[nH]c(=O)[nH]2)cc1` [Compound 9, 6-(4-Octylphenoxy)uracil] as the compound, how does the IC50 ([1]; read-out: IC50, experimental value) read?
**A.** 150 µM

**Q.** And the IC50 [5]?
**A.** > 300 µM

**Q.** With `CCCCCCCCOc1ccc(Nc2cc(O)nc(O)n2)cc1` [Compound 8, 6-(4-Octyloxyanilino)uracil] as the compound, how does the IC50 [1, 8] read?
**A.** 25 µM

**Q.** Which “Activity against viral UDG” value [1] does the source give for `CCCCCCc1ccc(Nc2cc(=O)n(CC)c(=O)[nH]2)cc1` [3-ethyl-6-(4-n-hexylanilino)uracil] here?
**A.** inactive

**Q.** Which IC50 [1, 9] does the source give for `CCCCCCCCc1ccc(Nc2cc(=O)[nH]c(=O)n2CCOC)cc1` [Compound 24, 1-(2-Methoxyethyl)-6-(4-octylanilino)uracil] here?
**A.** 15 µM

**Q.** And the “Potency against HSV1 UDG relative to parent compound” value [1]?
**A.** nearly as potent

**Q.** For `CCCCCCc1ccc(Nc2cc(O)nc(O)n2)cc1` [Compound 4, 6-(4-n-Hexylanilino)uracil], which IC50 [3, 6] is on record?
**A.** 30 µM

**Q.** What about the IC50 [3, 7] of the same compound?
**A.** 30 µM

**Q.** What about the IC50 [4] of the same compound?
**A.** > 300 µM

**Q.** Which “Mode of inhibition of human UDG” value ([4]; reported (Griffiths 1995)) does the source give for `O=c1cc[nH]c(=O)[nH]1` [uracil] here?
**A.** non-competitive

**Q.** Which IC50 [3, 6] does the source give for `CCc1ccc(Nc2cc(O)nc(O)n2)cc1` [Compound 2] here?
**A.** 500 µM

**Q.** Which IC50 [5] does the source give for `CCCCCCc1ccc(Nc2cc(=O)[nH]c(=O)n2CC)cc1` [Compound 17, 1-Ethyl-6-(4-hexylanilino)uracil] here?
**A.** > 200 µM
